From publication PMC8745263 (International Journal of Molecular Sciences, 2021)

Assay: RP-HPLC mobility of peptide before and after H2O2 oxidation (hydrophilicity)
Assay type: physicochemical
Conditions: RP-HPLC/LC-MS, C18 column, H2O/CH3CN with TFA; before and after 3% H2O2 oxidation; Supplementary Figure S1A,B
Protocol: GDF11[48-64]wt was converted to the variant with oxidized methionines by treatment with 3% H2O2, monitoring the reaction progression by reverse-phase HPLC chromatography (RP-HPLC) and mass spectrometry, using the un-oxidized precursor as control. The occurrence of the peroxide oxidation rendered the peptide more hydrophilic than its unoxidized counterpart, as clearly indicated in Supplementary Figure S1A,B by the shift in the RP-HPLC mobility of GDF11[48-64]ox to shorter retention time (9.97 min) with respect to that of GDF11[48-64]wt (11.41 min).
All protected amino acids, including 7-N-Fmoc-aminocoumarin-4-acetic acid (Fmoc-ACA-OH), Fmoc-Met(O)-OH, the coupling agents (1-[Bis(dimethylamino)methylene]-1H-1,2,3-triazol [4,5-b]pyridinium 3-oxid-hexafluorophosphate (Hexafluorophosphate Azabenzotriazole Tetramethyl Uronium, HATU), diisopropylcarbodiimide (DIC), ethyl cyanohydroxyiminoacetate (OXYMA)) and Fmoc-Rink Amide AM Resin used for peptide synthesis were purchased from IRIS Biotech GmbH (Marktrewitz, DE). Acetonitrile (CH3CN), dimethylformamide (DMF), trifluoroacetic acid (TFA), and methanol (CH3OH) were purchased from ROMIL (Dublin, Ireland). […]
Figure S1. Oxidation reaction of GDF11[48-64]wt with hydrogen peroxide monitored by LC-ESI-TOF-MS (LC-MS) analysis. […] After incubation, the samples were collected and analyzed by LC-MS. […]

Substance | RP-HPLC retention time (shift to shorter time = more hydrophilic) [min]
Ac-EYM(ox)FM(ox)QKYPHTHLVQQA-NH2 [GDF11[48-64] wt ox, GDF11[48-64]wt bearing sulphoxide groups on M50 and M52, by 3% H2O2 treatment] | 9.97
Ac-EYMFMQKYPHTHLVQQA-NH2 [GDF11[48-64]wt, peptide reproducing the 48–64 region of GDF11 protein, acetylated and amidated] | 11.41
